Experimental data as given in the supplement of paper PMC10307832.

Key:
Test in all cases: relative viability (nuclei count vs DMSO), 5 days (fraction); higher = more cells survive
ChaGo-K-1 = system: ChaGo-K-1
How it was run: (§1)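 Relative viability was taken as the ratio of nuclei in treated wells to nuclei in vehicle wells. Lung cancer cell lines in 1536-well plates received compounds by pin tool one day after seeding, either one drug alone or a fixed anchor-drug dose plus five library-drug doses (not always all listed) in √10 steps. Nuclei were counted on 4× images after 5 days of treatment, and values are medians of duplicate plates.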

EMC-BAC-2 = system: EMC-BAC-2
How it was run: as §1

EPLC-272H = system: EPLC-272H
How it was run: as §1

HCC-78 = system: HCC-78
How it was run: as §1

HCC-827 = system: HCC-827
How it was run: as §1

LCLC-103H = system: LCLC-103H
How it was run: as §1

LOU-NH91 = system: LOU-NH91
How it was run: as §1

LU99A = system: LU99A
How it was run: as §1

LXF-289 = system: LXF-289
How it was run: as §1

NCI-H1563 = system: NCI-H1563
How it was run: as §1

NCI-H1666 = system: NCI-H1666
How it was run: as §1

NCI-H1975 = system: NCI-H1975
How it was run: as §1

NCI-H2085 = system: NCI-H2085
How it was run: as §1

NCI-H2126 = system: NCI-H2126
How it was run: as §1

NCI-H23 = system: NCI-H23
How it was run: as §1

NCI-H2405 = system: NCI-H2405
How it was run: as §1

NCI-H3122 = system: NCI-H3122
How it was run: as §1

NCI-H322M = system: NCI-H322M
How it was run: as §1

RERF-LC-KJ = system: RERF-LC-KJ
How it was run: as §1

SK-LU-1 = system: SK-LU-1
How it was run: as §1

SW 1573 = system: SW 1573
How it was run: as §1

## O=C(O)c1ccc(-c2c[nH]c3ncc(-c4ccccc4)cc23)cc1C1CCCC1 + CC(C)C[C@H](NC(=O)[C@H](Cc1ccccc1)NC(=O)c1cnccn1)B(O)O [Bortezomib] (partner 0.002 µM)
ChaGo-K-1; first compound 0.04 µM
  relative viability: 1.08
ChaGo-K-1; first compound 0.1265 µM
  relative viability: 1.16
ChaGo-K-1; first compound 0.4 µM
  relative viability: 0.917
ChaGo-K-1; first compound 1.265 µM
  relative viability: 1.21
EMC-BAC-2; first compound 0.04 µM
  relative viability: 1.02
EMC-BAC-2; first compound 0.1265 µM
  relative viability: 1.16
EMC-BAC-2; first compound 0.4 µM
  relative viability: 1.02
EMC-BAC-2; first compound 1.265 µM
  relative viability: 1.04
EPLC-272H; first compound 0.04 µM
  relative viability: 0.755
EPLC-272H; first compound 0.1265 µM
  relative viability: 1.13
EPLC-272H; first compound 0.4 µM
  relative viability: 0.931
EPLC-272H; first compound 1.265 µM
  relative viability: 1.01
HCC-78; first compound 0.04 µM
  relative viability: 0.477
HCC-78; first compound 0.1265 µM
  relative viability: 0.473
HCC-78; first compound 0.4 µM
  relative viability: 0.436
HCC-78; first compound 1.265 µM
  relative viability: 0.495
HCC-827; first compound 0.04 µM
  relative viability: 0.982
HCC-827; first compound 0.1265 µM
  relative viability: 1.18
HCC-827; first compound 0.4 µM
  relative viability: 1.02
HCC-827; first compound 1.265 µM
  relative viability: 0.884
LCLC-103H; first compound 0.04 µM
  relative viability: 1.11
LCLC-103H; first compound 0.1265 µM
  relative viability: 1.15
LCLC-103H; first compound 0.4 µM
  relative viability: 1
LCLC-103H; first compound 1.265 µM
  relative viability: 1.05
LOU-NH91; first compound 0.04 µM
  relative viability: 0.484
LOU-NH91; first compound 0.1265 µM
  relative viability: 0.558
LOU-NH91; first compound 0.4 µM
  relative viability: 0.449
LOU-NH91; first compound 1.265 µM
  relative viability: 0.396
LU99A; first compound 0.04 µM
  relative viability: 1.19
LU99A; first compound 0.1265 µM
  relative viability: 1.08
LU99A; first compound 0.4 µM
  relative viability: 1.06
LU99A; first compound 1.265 µM
  relative viability: 0.816
LXF-289; first compound 0.04 µM
  relative viability: 0.969
LXF-289; first compound 0.1265 µM
  relative viability: 0.944
LXF-289; first compound 0.4 µM
  relative viability: 0.8
LXF-289; first compound 1.265 µM
  relative viability: 0.568
NCI-H1563; first compound 0.04 µM
  relative viability: 0.832
NCI-H1563; first compound 0.1265 µM
  relative viability: 0.869
NCI-H1563; first compound 0.4 µM
  relative viability: 0.907
NCI-H1563; first compound 1.265 µM
  relative viability: 0.931
NCI-H1666; first compound 0.04 µM
  relative viability: 0.86
NCI-H1666; first compound 0.1265 µM
  relative viability: 0.813
NCI-H1666; first compound 0.4 µM
  relative viability: 0.739
NCI-H1666; first compound 1.265 µM
  relative viability: 0.304
NCI-H1975; first compound 0.04 µM
  relative viability: 0.344
NCI-H1975; first compound 0.1265 µM
  relative viability: 0.391
NCI-H1975; first compound 0.4 µM
  relative viability: 0.335
NCI-H1975; first compound 1.265 µM
  relative viability: 0.195
NCI-H2085; first compound 0.04 µM
  relative viability: 1.08
NCI-H2085; first compound 0.1265 µM
  relative viability: 1.07
NCI-H2085; first compound 0.4 µM
  relative viability: 1.02
NCI-H2085; first compound 1.265 µM
  relative viability: 0.896
NCI-H2126; first compound 0.04 µM
  relative viability: 1.16
NCI-H2126; first compound 0.1265 µM
  relative viability: 1.13
NCI-H2126; first compound 0.4 µM
  relative viability: 1.1
NCI-H2126; first compound 1.265 µM
  relative viability: 1.02
NCI-H23; first compound 0.04 µM
  relative viability: 1.05
NCI-H23; first compound 0.1265 µM
  relative viability: 1.21
NCI-H23; first compound 0.4 µM
  relative viability: 0.958
NCI-H23; first compound 1.265 µM
  relative viability: 1.11
NCI-H2405; first compound 0.04 µM
  relative viability: 0.989
NCI-H2405; first compound 0.1265 µM
  relative viability: 1.03
NCI-H2405; first compound 0.4 µM
  relative viability: 0.916
NCI-H2405; first compound 1.265 µM
  relative viability: 0.819
NCI-H3122; first compound 0.04 µM
  relative viability: 0.976
NCI-H3122; first compound 0.1265 µM
  relative viability: 1.01
NCI-H3122; first compound 0.4 µM
  relative viability: 0.984
NCI-H3122; first compound 1.265 µM
  relative viability: 0.986
NCI-H322M; first compound 0.04 µM
  relative viability: 1.25
NCI-H322M; first compound 0.1265 µM
  relative viability: 1.32
NCI-H322M; first compound 0.4 µM
  relative viability: 1.33
NCI-H322M; first compound 1.265 µM
  relative viability: 1.23
RERF-LC-KJ; first compound 0.04 µM
  relative viability: 1.12
RERF-LC-KJ; first compound 0.1265 µM
  relative viability: 1.14
RERF-LC-KJ; first compound 0.4 µM
  relative viability: 1.06
RERF-LC-KJ; first compound 1.265 µM
  relative viability: 0.996
SK-LU-1; first compound 0.04 µM
  relative viability: 1.11
SK-LU-1; first compound 0.1265 µM
  relative viability: 1.17
SK-LU-1; first compound 0.4 µM
  relative viability: 1.15
SK-LU-1; first compound 1.265 µM
  relative viability: 0.693
SW 1573; first compound 0.04 µM
  relative viability: 1.11
SW 1573; first compound 0.1265 µM
  relative viability: 1.09
SW 1573; first compound 0.4 µM
  relative viability: 0.99
SW 1573; first compound 1.265 µM
  relative viability: 0.722
